Data on 1 molecule can be found in patent publication US11981669B2, “1,7-naphthyridine derivative and preparation method and use therefor” (CSPC ZHONGQI PHARMACEUTICAL TECHNOLOGY (SHIJIAZHUANG) CO., …, priority 2018, dated 2024).

Assay in all cases: PHD enzyme assay (Eu-VBC TR-fluorescence)
Holding throughout (type): biochemical

One test has as its target PHD3 (Homo sapiens (Human), UniProt Q9H6Z9). The method, then: (§1) VHL/elongin B/elongin C were constructed, expressed and purified, and VHL was labeled. PHD1, PHD2 and PHD3 were constructed, expressed and purified. VBC protein was labeled with DELFIA Eu-Labeling Kit. A NeutrAvidin 96-well plate was blocked after the addition of 200 μL Blocker Casein to each well, followed by incubation for 30 min. Each well was washed 3 times by adding 200 μL of washing buffer each time. A 200 nM HIF-1a 556-574 solution was prepared with washing buffer, and 100 μL of the solution was added to each well, followed by incubation for 60 min. Each well was washed 3 times by adding 200 μL of washing buffer each time. A 1 mM Biotin solution was prepared with Blocker Casein, and 100 μL of the solution was added to each well, followed by incubation for 30 min. Each well was washed 3 times by adding 200 μL of washing buffer each time. A 20× compound solution was prepared with PHD reaction buffer, with the final concentration of DMSO being 1%. PHD solutions were prepared with PHD reaction buffer, and the concentrations of PHD1, 2, and 3 solutions were 10 ng/μL, 5 ng/μL, and 15 ng/μL, respectively. 95 μL of the PHD solution was added to each compound well, followed by the addition of 5 μL of the compound solution, 95 μL of the PHD solution was added to each full active well, followed by the addition of 5 μL of the PHD reaction buffer; and 100 μL of the PHD reaction buffer was added to each blank well. After mixing homogeneously, the wells were incubated for 60 min. Each well was washed 3 times by adding 200 μL of washing buffer each time A 1 ng/μL Eu-VBC solution was prepared with Eu-VBC binding buffer, and 100 μL of the solution was added to each well, followed by incubation for 60 min. Each well was washed 6 times by adding 200 μL DELFIA Wash Concentrate each time. 100 μL DELFIA Enhancement Solution was added to each well. A microplate reader was used to read TR-Fluorescence at Ex340 and Em615. The flurescence of the sample wells was recorded as FLUsample, the flurescence of the full active wells was recorded as FLU100%, and the flurescence of the blank well was recorded as FLU0%.

The target in the next test is PHD1 (Homo sapiens (Human), UniProt Q96KS0). The method, then:
as §1

In a further test the target is PHD2 (Homo sapiens (Human), UniProt Q9GZT9). The method, then: as §1, with “A 200 nM HIF-1a 556-574 solution was prepared with washing buffer, and 100 μL of the solution was added to each well, followed by incubation for 60 min.” left out, “PHD solutions were prepared with PHD reaction buffer, and the concentrations of PHD1, 2, and 3 solutions were 10 ng/μL, 5 ng/μL, and 15 ng/μL, respectively. 95 μL of the PHD solution was added to each compound well, followed by the addition of 5 μL of the compound solution, 95 μL of the PHD solution was added to each full active well, followed by the addition of 5 μL of the PHD reaction buffer; and 100 μL of the PHD reaction buffer was added to each blank well.” left out, “A microplate reader was used to read TR-Fluorescence at Ex340 and Em615.” left out

The structures appear in SMILES notation.

Sequence of PHD1 (Q96KS0 whole entry): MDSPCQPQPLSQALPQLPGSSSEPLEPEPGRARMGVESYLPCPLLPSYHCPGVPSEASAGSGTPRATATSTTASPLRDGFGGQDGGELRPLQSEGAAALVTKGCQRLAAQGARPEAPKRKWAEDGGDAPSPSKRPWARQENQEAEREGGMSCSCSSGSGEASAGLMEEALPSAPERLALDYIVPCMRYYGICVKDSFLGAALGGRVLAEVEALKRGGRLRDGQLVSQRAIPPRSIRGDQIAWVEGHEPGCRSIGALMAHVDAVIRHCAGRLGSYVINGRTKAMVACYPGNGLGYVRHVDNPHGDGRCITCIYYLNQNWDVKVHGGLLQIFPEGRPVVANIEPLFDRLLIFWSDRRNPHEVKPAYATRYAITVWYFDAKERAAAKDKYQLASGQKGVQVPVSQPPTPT
Sequence of PHD2 (Q9GZT9 whole entry): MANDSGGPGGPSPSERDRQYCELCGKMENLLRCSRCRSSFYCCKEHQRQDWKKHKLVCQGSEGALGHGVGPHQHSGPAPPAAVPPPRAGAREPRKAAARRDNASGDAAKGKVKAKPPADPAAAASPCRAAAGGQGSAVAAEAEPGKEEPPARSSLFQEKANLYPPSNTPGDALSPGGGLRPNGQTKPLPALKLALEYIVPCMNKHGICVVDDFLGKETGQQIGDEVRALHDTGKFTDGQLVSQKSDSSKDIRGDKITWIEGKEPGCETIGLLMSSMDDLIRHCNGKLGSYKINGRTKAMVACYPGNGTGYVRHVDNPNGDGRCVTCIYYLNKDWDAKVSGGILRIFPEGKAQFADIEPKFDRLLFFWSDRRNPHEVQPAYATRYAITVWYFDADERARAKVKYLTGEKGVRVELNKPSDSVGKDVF
Sequence of PHD3 (Q9H6Z9 whole entry): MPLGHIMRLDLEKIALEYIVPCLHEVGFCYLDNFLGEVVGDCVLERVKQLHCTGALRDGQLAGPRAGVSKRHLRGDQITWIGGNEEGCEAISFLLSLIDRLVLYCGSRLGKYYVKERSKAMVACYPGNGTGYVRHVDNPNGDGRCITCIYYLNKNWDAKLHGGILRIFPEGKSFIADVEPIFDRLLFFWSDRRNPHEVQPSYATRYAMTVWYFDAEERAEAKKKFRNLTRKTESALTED

As for `O=C(O)CNC(=O)c1nc(Br)c2cc(Oc3ccccc3)ccc2c1O` [Comparative Example 3, reference compound], the results for the IC50 at PHD3, on PHD1 and on PHD2 were 544 nM, 452 nM and 951 nM, respectively.
